Tests used:
[1] = system: Pentagastrin-stimulated gastric acid secretion; test: Measurement of Inhibition of Pentagastrin-stimulated Gastric Acid Secretion in dog (Heidenhain pouch); format: in vivo, male beagle dog; details: beagle dog, oral, pentagastrin 8 μg/kg/hr, mean for 3-5 animals
Protocol: Measurement of Inhibition of Pentagastrin-stimulated Gastric Acid Secretion in doc
Assays were performed using male beagle dogs (7-12 kg) two months after surgical preparation of Heidenhain pouches following the conventional procedure. Each dog was used only once per week.
The animals were deprived of food with free access to water for 18 hr prior to the experiment. The gastric juice was collected from the gastric cannula by gravity drainage every 15 min, and acid output was determined by automatic titration with 0.05 N NaOH to pH 7.0 (Comtite-7, Hiranuma, Tokyo, Japan). Drugs were administered orally 3 hr after the start of the pentagastrin (8 μg/kg/hr) infusion. The effect of each drug was calculated as the percentage inhibition of stimulated acid output. […] Each result is a mean for 3-5 animals.

CCK-B receptor = target: T1, CCK-B receptor (Rattus norvegicus, UniProt P30553); test: Measurement of Binding Affinity for CCK-B Receptors ([125I]BH-CCK-8 displacement, rat brain membranes); details: SD rat brain membranes, [125I]BH-CCK-8, 25° C., 120 min, pH 6.5
T1 construct: the whole brain was immediately excised from each of the rats and homogenized; from tissue; host or cells: SD rat whole brain, membrane preparation
Protocol: Measurement of Binding Affinity for CCK-B Receptors
About 100 SD rats were decapitated without anaesthesia, the whole brain was immediately excised from each of the rats and homogenized in 10-fold volume of 0.32 M aqueous solution of sucrose by the use of a Teflon-coatedhomogenizer, the homogenate thus obtained was centrifuged for ten minutes at 900 g by the use of a cooled centrifuge, and the supernatant was further centrifuged for 15 minutes at 11500 g. The precipitate thus obtained was dispersed in 50 mM Tris-HCl buffer (pH 7.4) containing 0.08% Triton X-100, this suspension was allowed to stand for 30 minutes and again centrifuged for 15 minutes at 11500 g, the precipitate thus obtained was washed twice with 5 mM Tris-HCl buffer and twice with 50 mM Tris-HCl buffer in that order with centrifugal separation, the washed precipitate was suspended in 50 mM Tris-HCl buffer, and the suspension thus obtained was stored at -80° C. until the membrane preparation was required.
The membrane preparations were warmed to room temperature, diluted with 10 mM HEPES buffer (containing 130 mM NaCl, 5 mM MgCl2, 1 mM EGTA and 0.25 mg/ml bacitracin; pH 6.5) and incubated at 25° C. for 120 minutes in the presence of [^125 I]BH-CCK-8 and the test compound, then separated by suction filtration. Non-specific binding was determined in the presence of 1 μM CCK-8. The amount of labelled ligand bound to the receptor was measured by the use of a γ-counter; IC50 values were determined, being that concentration of test compound required to inhibit specific binding by 50%.
(§1) A high affinity for the CCK-A receptor in a gastrin/CCK-B antagonist is thought to be undesirable as it may lead to side-effects such as cholestasis and gall stone formation during therapy. Therefore it is preferable for the therapeutic agent to be selective for the CCK-B receptor. This selectivity is expressed by the ratio IC50. (CCK-A)/IC50 (CCK-B); the higher the value of this ratio the better is the selectivity.
The table below summarises CCK-B and CCK-A binding data for examples of preferred compounds, as well as the A/B ratio. Many compounds display a marked increase in CCK-B receptor binding affinity when compared to the compound of Example 281 of U.S. Pat. No. 4,820,834 (also known as L-365,260). Several compounds also show much greater selectivity for the CCK-B receptor over the CCK-A receptor than that reported for the compound of Example 281 of U.S. Pat. No.

CCK-A receptor = target: T2, CCK-A receptor (Rattus norvegicus, UniProt P30551); test: Measurement of Binding Affinity for CCK-A Receptors ([3H]L-364,718 displacement, rat pancreas membranes); details: SD rat pancreas membranes, [3H]L-364,718, 37° C., 30 min
T2 construct: The pancreas of an SD rat was homogenized; from tissue; host or cells: SD rat pancreas, membrane preparation
T2 sequence (P30551 1-444): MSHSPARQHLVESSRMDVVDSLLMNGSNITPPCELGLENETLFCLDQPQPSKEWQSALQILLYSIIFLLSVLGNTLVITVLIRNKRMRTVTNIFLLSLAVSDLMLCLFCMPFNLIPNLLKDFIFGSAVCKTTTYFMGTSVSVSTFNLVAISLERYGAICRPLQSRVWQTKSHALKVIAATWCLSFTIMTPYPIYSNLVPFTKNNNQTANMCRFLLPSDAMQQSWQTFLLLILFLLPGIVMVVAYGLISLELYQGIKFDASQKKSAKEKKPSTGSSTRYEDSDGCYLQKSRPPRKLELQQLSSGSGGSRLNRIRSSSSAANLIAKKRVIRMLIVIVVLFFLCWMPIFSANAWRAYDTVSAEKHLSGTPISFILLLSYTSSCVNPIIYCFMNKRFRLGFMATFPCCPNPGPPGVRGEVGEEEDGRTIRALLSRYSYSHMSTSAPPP
Protocol: Measurement of Binding Affinity for CCK-A Receptors
The pancreas of an SD rat was homogenized in a 20-fold volume of 50 mM Tris-HCl buffer (pH 7.7) by the use of a Polytrone-type homogenizer, the homogenate was twice centrifuged for 10 minutes at 50000 g by the use of an ultra-centrifuge, the precipitate thus obtained was suspended in a 40-fold volume of 50 mM Tris-HCl buffer (containing 0.2% BSA, 5 mM MgCl2, 0.1 mg/ml bacitracin and 5 mM DTT; pH 7.7), and the suspension was stored at -80° C. until the membrane preparations were required.
The membrane preparations were then warmed to room temperature, diluted 1:10 with the buffer and incubated at 37° C. for 30 minutes in the presence of [^3 H]L-364,718 and the test compound then separated by suction filtration. Non-specific binding was determined in the presence of 1 μM L-364,718. The amount of labelled ligand bound to the receptor was measured by the use of a liquid scintillation counter; IC50 values were determined, being that concentration of test compound required to inhibit specific binding by 50%.
as §1, with “(CCK-A)/IC50 (CCK-B); the higher the value of this ratio the better is the selectivity.” left out

T1 sequence (P30553 whole entry): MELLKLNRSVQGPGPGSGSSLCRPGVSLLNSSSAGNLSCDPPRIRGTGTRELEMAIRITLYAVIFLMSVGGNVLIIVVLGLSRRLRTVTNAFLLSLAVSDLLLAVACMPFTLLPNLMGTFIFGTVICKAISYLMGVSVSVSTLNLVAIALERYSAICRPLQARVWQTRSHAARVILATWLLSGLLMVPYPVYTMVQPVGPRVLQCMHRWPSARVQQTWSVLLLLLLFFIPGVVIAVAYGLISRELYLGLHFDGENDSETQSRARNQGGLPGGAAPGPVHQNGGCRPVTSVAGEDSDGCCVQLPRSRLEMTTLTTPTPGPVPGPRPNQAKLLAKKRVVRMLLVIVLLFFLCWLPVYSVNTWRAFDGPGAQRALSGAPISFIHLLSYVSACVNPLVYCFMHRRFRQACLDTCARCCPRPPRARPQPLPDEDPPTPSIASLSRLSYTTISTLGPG

Structure (SMILES) | maximum inhibition of stimulated acid output ([1]; 3 μmol/kg) | IC50 (CCK-B receptor) | also measured
Cc1cccc(NC(=O)NC2N=C(c3ccccn3)c3ccccc3N(CC(=O)C(C)(C)C)C2=O)c1 (racemic) [Example 27, N-((3RS)-1-tert-Butylcarbonylmethyl-2,3-dihydro-2-oxo-5-(2-pyridyl)-1H-1,4-benzodiazepin-3-yl)-N'-(3-methylphenyl) urea] | 66% | – | –
Cc1cccc(NC(=O)N[C@@H]2N=C(c3ccccc3)c3ccccc3N(C)C2=O)c1 [reference compound] | – | – | maximum inhibition of stimulated acid output ([1]; 100 μmol/kg): 0%
Cc1cccc(NC(=O)NC2N=C(c3ccccc3)c3ccccc3N(CC(=O)C3CCCC3)C2=O)c1 (racemic) [Example 4, N-((3RS)-1-Cyclopentylcarbonylmethyl-2,3-dihydro-2-oxo-5-phenyl-1H-1,4-benzodiazepin-3-yl)-N'-(3-methylphenyl) urea] | – | 0.23 nM | –
Cc1cccc(NC(=O)NC2N=C(c3ccccc3)c3ccccc3N(CC(=O)CC3CCCCC3)C2=O)c1 (racemic) [Example 32, N-((3RS)-1-Cyclohexylmethylcarbonylmethyl-2,3-dihydro-2-oxo-5-phenyl-1H-1,4-benzodiazepin-3-yl)-N'-(3-methylphenyl) urea] | – | 0.28 nM | –
CN(C)c1cccc(NC(=O)N[C@@H]2N=C(c3ccccc3)c3ccccc3N(CC(=O)C(C)(C)C)C2=O)c1 [Example 64, N-((3R)-1-tert-Butylcarbonylmethyl-2,3-dihydro-2-oxo-5-phenyl-1H-1,4-benzodiazepin-3-yl)-N'-(3-dimethylaminophenyl) urea] | 100% | – | –
Cc1cccc(NC(=O)NC2N=C(c3ccccc3)c3ccccc3N(CC(=O)C3(C)CCCCC3)C2=O)c1 (racemic) [Example 34, N-((3RS)-1-((1-Methylcyclohexyl)carbonylmethyl)-2,3-dihydro-2-oxo-5-phenyl-1H-1,4-benzodiazepin-3-yl)-N'-(3-methylphenyl) urea] | – | 0.38 nM | –
Cc1cccc(NC(=O)NC2N=C(c3ccccn3)c3ccccc3N(CC(=O)C3CCCC3)C2=O)c1 (racemic) [Example 14, N-((3RS)-1-Cyclopentylcarbonylmethyl-2,3-dihydro-2-oxo-5-(2-pyridyl)-1H-1,4-benzodiazepin-3-yl)-N'-(3-methylphenyl)urea] | – | 0.12 nM | IC50 (CCK-A receptor): 2600 nM
Cc1cccc(NC(=O)N[C@@H]2N=C(c3ccccc3)c3ccccc3N(CC(=O)C(C)(C)C)C2=O)c1 [Example 26, N-((3R)-1-tert-Butylcarbonylmethyl-2,3-dihydro-2-oxo-5-phenyl-1H-1,4-benzodiazepin-3-yl)-N'-(3-methylphenyl) urea] | 53% | – | –
CN(C)c1cccc(NC(=O)NC2N=C(c3ccccn3)c3ccccc3N(CC(=O)C(C)(C)C)C2=O)c1 (racemic) [Example 38, N-((3RS)-1-tert-Butylcarbonylmethyl-2,3-dihydro-2-oxo-5-(2-pyridyl)-1H-1,4-benzodiazepin-3-yl)-N'-(3-dimethylaminophenyl) urea] | 100% | – | –
